Measured values from PubChem BioAssay (NCI).
Several values for one entry are separate records, joined by “and”; a condition that tells them apart may be missing. Equal entries are not always repeated.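 Interpolation was linear, between the two tested concentrations surrounding the appropriate level; five concentrations were tested over 48 hours in 96-well plates. GI50 = concentration required for 50% inhibition of growth. TGI: concentration producing complete growth inhibition.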

How the values were obtained:
Test in all cases: NCI-60 cell line screen, 48 h
HOP-92 NSCLC = tested on: HOP-92 NSCLC
LOX IMVI melanoma = tested on: LOX IMVI melanoma
SN12C renal = tested on: SN12C renal
HS 578T breast = tested on: HS 578T breast
SNB-75 CNS = tested on: SNB-75 CNS
HCT-15 colon = tested on: HCT-15 colon
TK-10 renal = tested on: TK-10 renal
IGROV1 ovarian = tested on: IGROV1 ovarian
COLO 205 colon = tested on: COLO 205 colon
RPMI-8226 leukemia = tested on: RPMI-8226 leukemia

## CCOC(=O)C1CCCCN1CCc1c[nH]c2ccccc12 (stereo unspecified)
HOP-92 NSCLC
  TGI: > 100 µM
LOX IMVI melanoma
  TGI: > 100 µM
SN12C renal
  TGI: > 100 µM
HS 578T breast
  TGI: > 100 µM
SNB-75 CNS
  TGI: > 100 µM
HCT-15 colon
  TGI: > 100 µM
TK-10 renal
  TGI: > 100 µM
IGROV1 ovarian
  TGI: > 100 µM
COLO 205 colon
  TGI: > 100 µM
RPMI-8226 leukemia
  TGI: > 100 µM

## CCOC(=O)C1(C(F)(F)F)N=C(CC)OC(N2CCOCC2)=N1 (stereo unspecified)
HOP-92 NSCLC
  TGI: > 100 µM
LOX IMVI melanoma
  TGI: > 100 µM
SN12C renal
  TGI: > 100 µM
HS 578T breast
  TGI: > 100 µM
SNB-75 CNS
  TGI: > 100 µM
HCT-15 colon
  TGI: > 100 µM
TK-10 renal
  TGI: > 100 µM
IGROV1 ovarian
  TGI: > 100 µM
COLO 205 colon
  TGI: > 100 µM
RPMI-8226 leukemia
  TGI: > 100 µM

## CO[C@H]1C[C@H](O[C@H]2CC[C@]3(C=O)[C@H]4CC[C@]5(C)[C@@H](C6=CC(=O)OC6)CC[C@]5(O)[C@@H]4CC[C@]3(O)C2)O[C@H](C)[C@H]1O
HOP-92 NSCLC
  TGI: 1.73 µM
LOX IMVI melanoma
  TGI: 8.31 µM
SN12C renal
  TGI: 0.201 µM
HS 578T breast
  TGI: > 31.6 µM
SNB-75 CNS
  TGI: 3.13 µM
HCT-15 colon
  TGI: 0.732 µM
TK-10 renal
  TGI: 0.758 µM
IGROV1 ovarian
  TGI: 7.86 µM
COLO 205 colon
  TGI: 1.83 µM
RPMI-8226 leukemia
  TGI: 6.6 µM

## C/C(Nc1ccc(Cl)cc1Cl)=C1/CCOC1=O
HOP-92 NSCLC
  TGI: 51.8 µM
LOX IMVI melanoma
  TGI: > 100 µM
SN12C renal
  TGI: > 100 µM
HS 578T breast
  TGI: 73.8 µM
SNB-75 CNS
  TGI: 66.1 µM
HCT-15 colon
  TGI: > 100 µM
TK-10 renal
  TGI: > 100 µM
IGROV1 ovarian
  TGI: > 100 µM
COLO 205 colon
  TGI: > 100 µM
RPMI-8226 leukemia
  TGI: > 100 µM

## O=C(/C=C/c1cccs1)c1ccccc1Cl
HOP-92 NSCLC
  TGI: 97.5 µM
LOX IMVI melanoma
  TGI: 32.9 µM
SN12C renal
  TGI: 30.2 µM
HS 578T breast
  TGI: 35.5 µM
SNB-75 CNS
  TGI: 28.9 µM
HCT-15 colon
  TGI: 33.4 µM
TK-10 renal
  TGI: 32.3 µM
IGROV1 ovarian
  TGI: > 65 µM
COLO 205 colon
  TGI: 38.6 µM
RPMI-8226 leukemia
  TGI: 61.9 µM

## N#Cc1nc(C#N)n(C(=O)c2ccccc2)c1NC(=O)c1ccccc1
HOP-92 NSCLC
  TGI: > 100 µM
LOX IMVI melanoma
  TGI: > 100 µM
SN12C renal
  TGI: > 100 µM
HS 578T breast
  TGI: > 100 µM
SNB-75 CNS
  TGI: > 100 µM
HCT-15 colon
  TGI: > 100 µM
TK-10 renal
  TGI: > 100 µM
IGROV1 ovarian
  TGI: > 100 µM
COLO 205 colon
  TGI: > 100 µM
RPMI-8226 leukemia
  TGI: > 100 µM

## CN(C)C(=S)Oc1ccc2ccc(=O)oc2c1
HOP-92 NSCLC
  TGI: > 100 µM
LOX IMVI melanoma
  TGI: > 100 µM
SN12C renal
  TGI: > 100 µM
HS 578T breast
  TGI: > 100 µM
SNB-75 CNS
  TGI: > 100 µM
HCT-15 colon
  TGI: > 100 µM
TK-10 renal
  TGI: > 100 µM
IGROV1 ovarian
  TGI: > 100 µM
COLO 205 colon
  TGI: > 100 µM
RPMI-8226 leukemia
  TGI: > 100 µM

## N/C(=N\Nc1ccc(S(N)(=O)=O)cc1)c1cnccn1
HOP-92 NSCLC
  TGI: > 100 µM
LOX IMVI melanoma
  TGI: > 100 µM
SN12C renal
  TGI: > 100 µM
HS 578T breast
  TGI: > 100 µM
SNB-75 CNS
  TGI: > 100 µM
HCT-15 colon
  TGI: > 100 µM
TK-10 renal
  TGI: > 100 µM
IGROV1 ovarian
  TGI: > 100 µM
COLO 205 colon
  TGI: > 100 µM
RPMI-8226 leukemia
  TGI: > 100 µM

## CCOP(=O)(OCC)C(C)(CC)NC(=O)C(C(F)(F)F)C(F)(F)F (stereo unspecified)
HOP-92 NSCLC
  TGI: > 100 µM
LOX IMVI melanoma
  TGI: > 100 µM
SN12C renal
  TGI: > 100 µM
HS 578T breast
  TGI: > 100 µM
SNB-75 CNS
  GI50: > 71.6 µM
  TGI: > 100 µM
HCT-15 colon
  TGI: > 100 µM
TK-10 renal
  TGI: > 100 µM
IGROV1 ovarian
  TGI: > 100 µM
COLO 205 colon
  TGI: > 100 µM
RPMI-8226 leukemia
  TGI: > 81.6 µM and 59.7 µM

## NCCC1CN(C(=O)OCc2ccccc2)c2ccccc21 (stereo unspecified)
HOP-92 NSCLC
  TGI: 26.9 µM
LOX IMVI melanoma
  TGI: 17.1 µM
SN12C renal
  TGI: 27.3 µM
HS 578T breast
  TGI: 56.8 µM
SNB-75 CNS
  TGI: 43.3 µM
HCT-15 colon
  TGI: 14.5 µM
TK-10 renal
  TGI: > 54.8 µM
IGROV1 ovarian
  TGI: 33 µM
COLO 205 colon
  TGI: 31.5 µM
RPMI-8226 leukemia
  TGI: 46.6 µM
